Data from US11572590B2, “Methods for evaluating tumor cell spheroids using 3D microfluidic cell culture device” (Dana-Farber Cancer Institute, Inc., priority 2017, dated 2023).
Read-outs that look alike come from different tables or passages of the source.

Assays:
Assay in all cases: SelectScreen Kinase Profiling, single point inhibition and IC50 for off-target kinases
Format in all cases: biochemical
off-target kinases [1] = molecular target: off-target kinases (Homo sapiens, UniProt P49760); settings: CLK2, ZLYTE, ATP Km app
Chain of off-target kinases (Homo sapiens, UniProt P49760) (P49760 whole entry): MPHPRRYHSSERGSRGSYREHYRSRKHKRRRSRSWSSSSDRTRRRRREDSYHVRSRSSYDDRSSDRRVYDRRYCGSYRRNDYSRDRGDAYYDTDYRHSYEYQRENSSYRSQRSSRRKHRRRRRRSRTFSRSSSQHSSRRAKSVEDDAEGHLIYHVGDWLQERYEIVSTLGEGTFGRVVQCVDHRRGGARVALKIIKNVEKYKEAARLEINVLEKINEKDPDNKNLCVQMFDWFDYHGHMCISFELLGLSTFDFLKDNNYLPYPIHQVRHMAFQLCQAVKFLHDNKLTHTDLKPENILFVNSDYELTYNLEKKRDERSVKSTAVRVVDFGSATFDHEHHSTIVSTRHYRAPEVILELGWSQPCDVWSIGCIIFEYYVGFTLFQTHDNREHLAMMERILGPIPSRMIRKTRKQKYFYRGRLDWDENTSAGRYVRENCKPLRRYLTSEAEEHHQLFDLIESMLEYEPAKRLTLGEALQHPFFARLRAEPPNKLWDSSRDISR

off-target kinases [2] = molecular target: off-target kinases (Homo sapiens, UniProt Q9H2G2); settings: SLK, LanthaScreen Binding
off-target kinases [3] = molecular target: off-target kinases (Homo sapiens, UniProt P42336); settings: PIK3CA/PIK3R1 (p110 alpha/p85 alpha); Cmpd1 1000 μM; ATP Km app; Adapta
off-target kinases [4] = molecular target: off-target kinases (Homo sapiens, UniProt Q5S007, R1441C); settings: LRRK2 R1441C, ATP Km app, Adapta
Chain of off-target kinases (Homo sapiens, UniProt Q5S007, R1441C) (Q5S007 whole entry R1441C): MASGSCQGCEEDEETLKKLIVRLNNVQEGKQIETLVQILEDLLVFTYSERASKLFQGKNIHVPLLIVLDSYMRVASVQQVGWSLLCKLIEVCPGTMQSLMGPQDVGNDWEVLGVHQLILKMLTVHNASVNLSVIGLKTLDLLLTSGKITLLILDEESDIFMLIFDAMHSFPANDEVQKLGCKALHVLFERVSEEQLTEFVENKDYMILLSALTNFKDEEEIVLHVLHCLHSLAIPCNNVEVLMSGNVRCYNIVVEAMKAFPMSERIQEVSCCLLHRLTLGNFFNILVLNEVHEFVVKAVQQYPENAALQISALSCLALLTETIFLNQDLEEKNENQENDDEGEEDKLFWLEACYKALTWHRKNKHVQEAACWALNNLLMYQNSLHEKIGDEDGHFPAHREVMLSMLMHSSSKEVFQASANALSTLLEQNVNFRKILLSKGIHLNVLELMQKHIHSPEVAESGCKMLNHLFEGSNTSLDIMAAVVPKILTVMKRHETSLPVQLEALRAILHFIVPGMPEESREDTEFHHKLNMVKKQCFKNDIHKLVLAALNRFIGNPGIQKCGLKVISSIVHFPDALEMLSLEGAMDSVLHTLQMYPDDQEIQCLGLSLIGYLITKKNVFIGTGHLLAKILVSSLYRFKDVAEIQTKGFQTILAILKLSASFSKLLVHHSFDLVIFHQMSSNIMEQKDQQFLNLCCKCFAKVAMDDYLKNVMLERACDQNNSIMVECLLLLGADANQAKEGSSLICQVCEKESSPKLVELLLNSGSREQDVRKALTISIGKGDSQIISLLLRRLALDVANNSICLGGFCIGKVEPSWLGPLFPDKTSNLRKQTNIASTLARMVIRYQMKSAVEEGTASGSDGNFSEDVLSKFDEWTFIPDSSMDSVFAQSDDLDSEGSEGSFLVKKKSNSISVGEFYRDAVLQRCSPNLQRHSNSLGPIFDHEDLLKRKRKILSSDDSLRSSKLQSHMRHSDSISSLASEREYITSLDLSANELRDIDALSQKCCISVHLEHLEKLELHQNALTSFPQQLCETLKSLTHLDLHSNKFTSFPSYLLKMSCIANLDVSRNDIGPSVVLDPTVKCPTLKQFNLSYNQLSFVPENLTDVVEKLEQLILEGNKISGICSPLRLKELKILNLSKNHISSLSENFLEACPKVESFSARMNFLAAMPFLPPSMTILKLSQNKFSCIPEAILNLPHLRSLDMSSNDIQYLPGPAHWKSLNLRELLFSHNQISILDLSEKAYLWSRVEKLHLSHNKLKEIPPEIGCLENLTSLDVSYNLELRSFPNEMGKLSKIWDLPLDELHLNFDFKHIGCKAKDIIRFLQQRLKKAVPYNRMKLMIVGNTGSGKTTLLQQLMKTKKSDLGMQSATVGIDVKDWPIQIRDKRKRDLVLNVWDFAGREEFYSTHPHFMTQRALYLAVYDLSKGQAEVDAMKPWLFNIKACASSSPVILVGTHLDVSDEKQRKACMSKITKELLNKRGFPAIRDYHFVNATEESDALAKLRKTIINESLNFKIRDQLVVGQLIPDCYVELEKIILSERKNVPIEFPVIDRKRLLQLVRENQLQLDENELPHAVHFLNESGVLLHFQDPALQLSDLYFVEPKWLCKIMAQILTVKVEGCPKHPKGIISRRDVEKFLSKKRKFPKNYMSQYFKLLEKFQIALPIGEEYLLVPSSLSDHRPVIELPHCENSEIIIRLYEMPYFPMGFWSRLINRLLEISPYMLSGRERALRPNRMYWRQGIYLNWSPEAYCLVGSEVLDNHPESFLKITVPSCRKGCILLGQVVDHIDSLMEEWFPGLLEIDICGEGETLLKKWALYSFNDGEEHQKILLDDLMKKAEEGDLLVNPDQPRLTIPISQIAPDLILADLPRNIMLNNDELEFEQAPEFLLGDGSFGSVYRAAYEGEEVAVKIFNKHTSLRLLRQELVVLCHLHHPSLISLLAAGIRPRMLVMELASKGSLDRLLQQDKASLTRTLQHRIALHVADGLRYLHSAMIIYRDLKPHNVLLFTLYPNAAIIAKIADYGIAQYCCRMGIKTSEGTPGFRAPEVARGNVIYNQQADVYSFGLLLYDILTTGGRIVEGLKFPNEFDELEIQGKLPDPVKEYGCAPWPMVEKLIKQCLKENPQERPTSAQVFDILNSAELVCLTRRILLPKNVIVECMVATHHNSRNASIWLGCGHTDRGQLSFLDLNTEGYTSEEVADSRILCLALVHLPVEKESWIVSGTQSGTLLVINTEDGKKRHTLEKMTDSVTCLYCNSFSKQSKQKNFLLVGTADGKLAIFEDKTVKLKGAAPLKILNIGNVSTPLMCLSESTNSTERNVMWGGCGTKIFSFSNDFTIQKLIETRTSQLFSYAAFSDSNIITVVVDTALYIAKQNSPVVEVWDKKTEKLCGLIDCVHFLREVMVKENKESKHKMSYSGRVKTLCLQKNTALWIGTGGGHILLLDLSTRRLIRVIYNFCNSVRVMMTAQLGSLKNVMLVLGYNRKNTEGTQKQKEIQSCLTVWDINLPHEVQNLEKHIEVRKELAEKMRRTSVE

off-target kinases [5] = molecular target: off-target kinases (Homo sapiens, UniProt P45983); settings: MAPK8 (JNK1)
off-target kinases [6] = molecular target: T1, off-target kinases (Homo sapiens, UniProt Q9NWZ3); settings: IRAK4, ZLYTE, ATP Km app
T1 sequence (Q9NWZ3 1-460): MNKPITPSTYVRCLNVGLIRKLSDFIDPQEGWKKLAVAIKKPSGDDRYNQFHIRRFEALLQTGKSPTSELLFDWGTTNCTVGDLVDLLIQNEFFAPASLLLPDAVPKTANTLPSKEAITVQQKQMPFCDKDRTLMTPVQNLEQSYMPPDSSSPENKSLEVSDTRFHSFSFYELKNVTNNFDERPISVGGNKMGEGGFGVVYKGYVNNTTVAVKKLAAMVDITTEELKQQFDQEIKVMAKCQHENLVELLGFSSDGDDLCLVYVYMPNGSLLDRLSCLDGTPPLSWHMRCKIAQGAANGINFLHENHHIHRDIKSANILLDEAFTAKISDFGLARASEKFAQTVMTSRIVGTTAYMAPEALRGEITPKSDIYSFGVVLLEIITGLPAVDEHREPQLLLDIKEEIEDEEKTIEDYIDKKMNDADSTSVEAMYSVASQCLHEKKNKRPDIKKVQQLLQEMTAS

off-target kinases [7] = molecular target: off-target kinases (Homo sapiens, UniProt P10721, V654A); settings: KIT V654A (mutant), LanthaScreen Binding
Chain of off-target kinases (Homo sapiens, UniProt P10721, V654A) (P10721 26-976 V654A): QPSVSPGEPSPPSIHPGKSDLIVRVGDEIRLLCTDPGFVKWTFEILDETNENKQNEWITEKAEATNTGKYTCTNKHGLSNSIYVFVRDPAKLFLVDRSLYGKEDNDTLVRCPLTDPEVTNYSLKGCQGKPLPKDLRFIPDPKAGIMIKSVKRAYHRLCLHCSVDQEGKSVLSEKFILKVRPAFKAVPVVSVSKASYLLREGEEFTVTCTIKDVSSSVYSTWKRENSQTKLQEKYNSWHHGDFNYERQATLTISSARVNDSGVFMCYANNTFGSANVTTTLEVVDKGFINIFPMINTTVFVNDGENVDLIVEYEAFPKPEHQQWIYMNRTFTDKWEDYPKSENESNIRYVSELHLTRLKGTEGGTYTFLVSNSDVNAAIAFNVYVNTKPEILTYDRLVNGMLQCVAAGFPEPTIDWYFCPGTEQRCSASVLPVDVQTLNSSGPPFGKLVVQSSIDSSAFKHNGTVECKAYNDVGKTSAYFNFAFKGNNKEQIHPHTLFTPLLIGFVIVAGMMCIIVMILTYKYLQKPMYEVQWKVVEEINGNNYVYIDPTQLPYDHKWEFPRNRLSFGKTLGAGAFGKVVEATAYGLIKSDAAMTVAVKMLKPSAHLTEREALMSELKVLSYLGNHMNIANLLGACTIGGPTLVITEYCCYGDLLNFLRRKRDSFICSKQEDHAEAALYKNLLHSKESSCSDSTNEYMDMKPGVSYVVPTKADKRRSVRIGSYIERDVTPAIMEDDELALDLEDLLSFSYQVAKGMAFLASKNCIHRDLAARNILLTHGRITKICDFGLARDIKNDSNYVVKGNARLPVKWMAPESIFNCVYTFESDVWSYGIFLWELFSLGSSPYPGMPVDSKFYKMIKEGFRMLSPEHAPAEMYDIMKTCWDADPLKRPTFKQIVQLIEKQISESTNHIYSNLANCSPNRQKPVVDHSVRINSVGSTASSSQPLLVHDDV

off-target kinases [8] = molecular target: T2, off-target kinases (Homo sapiens, UniProt P52564, S207E/T211E); settings: MAP2K6 (MKK6) S207E T211E (mutant), LanthaScreen Binding
T2 sequence (P52564 1-334 S207E/T211E): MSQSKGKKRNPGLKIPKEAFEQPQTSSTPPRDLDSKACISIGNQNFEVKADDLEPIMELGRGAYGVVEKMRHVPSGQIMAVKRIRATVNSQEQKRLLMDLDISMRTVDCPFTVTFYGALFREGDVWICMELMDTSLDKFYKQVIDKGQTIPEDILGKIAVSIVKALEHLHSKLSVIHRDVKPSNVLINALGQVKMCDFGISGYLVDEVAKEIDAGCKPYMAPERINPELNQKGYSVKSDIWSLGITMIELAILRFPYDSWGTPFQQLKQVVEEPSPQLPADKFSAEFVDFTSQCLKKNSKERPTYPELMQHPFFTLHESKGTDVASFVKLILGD

off-target kinases [9] = molecular target: off-target kinases (Homo sapiens, UniProt P22607, K650E); settings: FGFR3 K650E (mutant), ZLYTE, ATP Km app
Chain of off-target kinases (Homo sapiens, UniProt P22607, K650E) (P22607 23-806 K650E): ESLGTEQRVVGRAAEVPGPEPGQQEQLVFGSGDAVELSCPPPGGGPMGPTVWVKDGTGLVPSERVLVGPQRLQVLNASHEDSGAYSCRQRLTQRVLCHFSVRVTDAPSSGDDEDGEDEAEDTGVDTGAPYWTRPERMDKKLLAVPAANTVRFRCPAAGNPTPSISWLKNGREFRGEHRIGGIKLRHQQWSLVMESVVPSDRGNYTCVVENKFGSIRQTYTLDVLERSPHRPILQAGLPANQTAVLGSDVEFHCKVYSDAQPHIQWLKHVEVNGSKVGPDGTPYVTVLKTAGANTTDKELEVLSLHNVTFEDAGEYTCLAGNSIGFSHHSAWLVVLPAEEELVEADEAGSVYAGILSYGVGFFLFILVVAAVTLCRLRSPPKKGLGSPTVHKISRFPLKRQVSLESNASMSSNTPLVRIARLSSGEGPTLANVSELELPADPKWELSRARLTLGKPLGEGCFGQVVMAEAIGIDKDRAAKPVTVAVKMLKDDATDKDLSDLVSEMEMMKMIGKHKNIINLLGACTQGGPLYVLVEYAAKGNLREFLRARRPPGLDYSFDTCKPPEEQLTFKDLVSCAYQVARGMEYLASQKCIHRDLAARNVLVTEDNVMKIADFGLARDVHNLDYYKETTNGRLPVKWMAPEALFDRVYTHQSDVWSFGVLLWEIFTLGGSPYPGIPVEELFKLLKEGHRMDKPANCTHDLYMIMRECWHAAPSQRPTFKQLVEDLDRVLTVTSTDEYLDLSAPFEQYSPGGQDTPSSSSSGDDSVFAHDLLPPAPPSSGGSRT

N#Cc1cc(-c2ncnc(Nc3ccc(N4CCN(C5COC5)CC4)cc3)n2)ccc1OC1CCOCC1 [Compound 1, 5-(4-((4-(4-(oxetan-3-yl)piperazin-1-yl)phenyl)amino)-1,3,5-triazin-2-yl)-2-((tetrahydro-2H-pyran-4-yl)oxy)benzonitrile]
inhibition (off-target kinases [1]; read-out: % Inhibition 1): 5%
inhibition (off-target kinases [1]; read-out: % Inhibition 2): 9%
inhibition (off-target kinases [1]; read-out: % Inhibition Avg): 7%
inhibition (off-target kinases [2]; read-out: % Inhibition 1): 29%
inhibition (off-target kinases [2]; read-out: % Inhibition 2): 32%
inhibition (off-target kinases [2]; read-out: % Inhibition Avg): 30%
% Inhibition 1 (off-target kinases [3]): −5%
% Inhibition 2 (off-target kinases [3]): −4%
% Inhibition Avg (off-target kinases [3]): −5%
inhibition (off-target kinases [4]; read-out: % Inhibition 1): 99%
inhibition (off-target kinases [4]; read-out: % Inhibition 2): 95%
inhibition (off-target kinases [4]; read-out: % Inhibition Avg): 97%
inhibition (off-target kinases [5]; LanthaScreen Binding, read-out: % Inhibition 1): 57%
inhibition (off-target kinases [5]; LanthaScreen Binding, read-out: % Inhibition 2): 56%
inhibition (off-target kinases [5]; LanthaScreen Binding, read-out: % Inhibition Avg): 57%
inhibition (off-target kinases [5]; ZLYTE, ATP 100, read-out: % Inhibition 1): 33%
inhibition (off-target kinases [5]; ZLYTE, ATP 100, read-out: % Inhibition 2): 18%
inhibition (off-target kinases [5]; ZLYTE, ATP 100, read-out: % Inhibition Avg): 25%
inhibition (off-target kinases [6]; read-out: % Inhibition 1): 5%
inhibition (off-target kinases [6]; read-out: % Inhibition 2): 8%
inhibition (off-target kinases [6]; read-out: % Inhibition Avg): 6%
inhibition (off-target kinases [7]; read-out: % Inhibition 1): 7%
inhibition (off-target kinases [7]; read-out: % Inhibition 2): 10%
inhibition (off-target kinases [7]; read-out: % Inhibition Avg): 9%
inhibition (off-target kinases [8]; read-out: % Inhibition 1): 5%
inhibition (off-target kinases [8]; read-out: % Inhibition 2): 5%
inhibition (off-target kinases [8]; read-out: % Inhibition Avg): 5%
inhibition (off-target kinases [9]; read-out: % Inhibition 1): 11%
inhibition (off-target kinases [9]; read-out: % Inhibition 2): 6%
inhibition (off-target kinases [9]; read-out: % Inhibition Avg): 8%
